The assay concerns IFN+CD8+ T cells. Kind of assay: GF mice inoculated with human faecal samples or mouse B5 caecal contents, with or without antibiotics. The format is in vivo. The conditions noted are these: antibiotics via drinking water or chloroform-treated caecal contents. An excerpt:
Next, it was investigated whether the human gut microbiota contained microbes which were able to induce IFN+CD8+ T cells (FIG. 4). Stool samples were collected from six healthy human volunteers (A˜F) (FIG. 5). The samples were individually administered orally into germ free […] mice kept in sterile isolators (five or six mice per group). Four weeks after oral inoculation of stool samples, mice were sacrificed, and small intestine and colons were harvested and investigated for IFN+CD8+ T-cells by FACS.
The mice were then orally administrated drinking water with or without Ampicillin, Metronidazole, Streptomycin or Tylosin (five mice per group) (FIG. 10). Alternatively, cecal contents of mouse B #5 were treated with 3% chloroform and orally inoculated into another five germ-free mice (‘B #5+Chrolo’). […] B #5 microbiota.
Human faecal samples were collected at the RIKEN institute and Keio University according to the study protocol approved by the institutional review board. Informed consent was obtained from each subject. Faecal samples and mouse B5 caecal contents were suspended in equal volume (w/v) of PBS containing 20% glycerol/PBS, snap-frozen in liquid nitrogen, and stored at −80° C. until use. The frozen stocks were thawed, suspended in TS broth, filtered through a 100 µm cell strainer, and orally inoculated into GF mice (approximately 5-60 mg/250 μL, per mouse). After 24 hours of inoculation, some mice were treated with ampicillin (1 g/L), metronidazole (1 g/L), tylosin (0.5 g/L) or streptomycin (0.5 g/L) via the drinking water. For chloroform treatment of B5 caecal contents, the caecal content suspension was mixed with chloroform (final concentration 3%) and incubated in a shaking water bath for 60 min followed by evaporation of chloroform via bubbling with N2 gas for 30 min. To isolate IFN+[…] T cell-inducing bacterial strains, caecal contents from GF+B5-Amp2 and GF+B5-Amp3 mice were serially dilated with PBS and seeded onto nonselective and selective agar plates (GAM, CM0151, and BBE). After culture under anaerobic conditions (80% N2, 10% H2, 10% CO2) in an anaerobic chamber (Coy Laboratory Products) at 37° C. for 2 to 4 days, individual colonies were picked, and the 16S rRNA gene region was amplified with universal primers (27F: 5′-[…]-3′ (SEQ ID NO:12), 1492R: 5′-[…]-3′ (SEQ ID NO:13)) and sequenced. Individual isolates in the culture collection were grouped as “strains” if their 16S rRNA gene sequences had 100% identity. The resulting strain sequences were compared to those in the RDP database and to OTUs observed in caecal samples from GF+B5−Amp2 and GF+B5−Amp3 to determine closely related species or strains and their corresponding OTUs. To prepare a bacterial mixture, bacterial strains were individually grown in GAM, CM0149, or EG both to confluence and equal volumes of media were mixed. […] The mixture of isolates was orally administered to GF mice (approximately 1-2×10^8 CFU of each strain in 250 μL medium per mouse). All mice receiving a given mixture of bacterial strains were maintained in a single gnotobiotic isolator. For administration of heat-killed bacteria, 11 strains cultured individually for 3 days were mixed, washed with autoclaved water, heat-killed at 121° C. for 30 min, and given to GF mice via the drinking water (2-10×10^7 equivalent CFU of each strain per 1 mL) for 4 weeks. C57BL/6 GF mice (6-12 weeks old) were used and analysed 3-4 weeks after bacterial colonization unless otherwise indicated.

The structures appear in SMILES notation. Entries after “also recorded” stand apart in the source; their conditions may differ.

For the molecule `CC1(C)S[C@@H]2[C@H](NC(=O)[C@H](N)c3ccccc3)C(=O)N2[C@H]1C(=O)O` [Ampicillin, ampicillin], the “effect of treatment on IFN+CD8+ T cell induction by mouse B5 microbiota” value (from here on “effect of treatment”) is reported as “enhanced induction”. The “effect of treatment” value (listed as Amp) is “enhanced the induction of IFN+CD8 T cells; also recorded: enhanced the observed induction”.

As to `Cc1ncc([N+](=O)[O-])n1CCO` [MNZ, metronidazole], the “effect of treatment” value was “substantial decrease in IFN+CD8 T cell induction”.

Turning to `[H]/N=C(/N)N[C@H]1[C@H](O)[C@@H](O)[C@H](O[C@@H]2O[C@@H](C)[C@](O)(C=O)[C@H]2O[C@@H]2O[C@@H](CO)[C@H](O)[C@@H](O)[C@@H]2NC)[C@@H](N/C(N)=N\[H])[C@@H]1O` [STM, streptomycin], the “effect of treatment” value is reported as “substantial decrease in IFN+CD8 T cell induction”.

Regarding `CC[C@H]1OC(=O)C[C@@H](O)[C@H](C)[C@@H](O[C@@H]2O[C@H](C)[C@@H](O[C@H]3C[C@@](C)(O)[C@@H](O)[C@H](C)O3)[C@H](N(C)C)[C@H]2O)[C@@H](CC=O)C[C@@H](C)C(=O)/C=C/C(C)=C/[C@@H]1CO[C@@H]1O[C@H](C)[C@@H](O)[C@@H](OC)[C@H]1OC` [Tyl, tylosin], the “effect of treatment” value is given as “substantial decrease in IFN+CD8 T cell induction”.

On to `ClC(Cl)Cl` [chloroform], for which the “effect of treatment” value is “reduced the induction capability; also recorded: abrogated induction altogether”. Also, the “effect of treatment” value (listed as Chlo) is given as “abrogated it altogether”.
